The values that follow come from US8691824B2, “Certain kynurenine-3-monooxygenase inhibitors, pharmaceutical compositions, and methods of use thereof” (CHDI Foundation, Inc., priority 2008, dated 2014).

The assay has as its target T1, KMO mouse enzyme (Mus musculus, UniProt Q91WN4).
T1 construct: KMO enzyme prepared at Evotec from mouse liver (4-6 weeks old) via mitochondria isolation; from tissue; host or cells: mouse liver (4-6 weeks old), mitochondria isolation
The experiment in a line: L-Kynurenine hydroxylation to 3OH-KYN by LC/MS, mouse liver mitochondrial KMO. The note with it: compound at 10 μM, read-out: INH.Mouse @ 10 μM. Format: biochemical. The method, then:
A method of monitoring L-Kynurenine (KYN) hydroxylation to form 3-Hydroxy-Kynurenine (3OH-KYN) by LC/MS is described. Product is quantified by multiple reaction monitoring (MRM method).
• Compound: Stock concentrations: 10 mM in 100% DMSO • Enzyme: KMO enzyme prepared at Evotec from mouse liver (4-6 weeks old) via mitochondria isolation as described in the literature • Substrate: L-Kynurenine (Sigma: Cat# K3750, stock concentration: 10 mM in 100 mM potassium phosphate buffer, pH 7.4) Assay Conditions: • Buffer: 100 mM potassium phosphate, pH 7.4, 200 μM NADPH, 0.4 U/ml G6P-DH (Glucose 6-phosphate Dehydrogenase), 3 mM G6P (D-Glucose 6-phosphate) • Assay Volume: 40 μl • Plate Format: 384 well plate, transparent (Matrix) • Read-Out: product (3OH-KYN) quantification using product specific MRM • Reader: LC/MS/MS Assay Protocol: • prepare serial dilution (factor 3) of compound in 100% DMSO (top concentration=10 mM, 100% DMSO) • [8 points: 10 mM; 3.33 mM; 1.11 mM; 0.37 mM; 0.12 mM; 0.04 mM; 0.0137 mM; 0.0045 mM, 0.0015 mM] • prepare […] concentrated solution of each compound concentration (top concentration 300 μM, 3% DMSO) in assay buffer • [concentrations: 300 μM; 100 μM; 33.3 μM; 11.1 μM; 3.70 μM; 1.23 μM; 0.41 μM; 0.137 μM] • prepare substrate (10 mM) at concentration of 1 mM in assay buffer • assay mix: 4 μl compound/well of each concentration+24 μl assaybuffer/well+8 μl KMO mouse enzyme+4 μl 1 mM substrate (final concentration=100 μM) • [final compound top concentration: 30 μM; 0.3% DMSO] • [final compound bottom concentration: 0.0137 μM; 0.3% DMSO] • positive control: 4 μl 50 μM FCE28833 in assay buffer, 0.5% DMSO [final assay concentration=5 μM]+24 μl assaybuffer/well+8 μl KMO mouse enzyme+4 μl 1 mM substrate [final concentration=100 μM] • negative control: 28 μl assay buffer/well+8 μl KMO mouse enzyme+4 μl 1 mM substrate [final concentration=100 μM] • incubate 40 min at RT • add 40 μl/well 10% trichloro acetic acid in water to stop the assay and precipitate protein • centrifuge plate for 3 min at 4000 rpm • product detection by LC/MS (injection of 20 μl/well, 2 fold overfill of the 10 μl sample loop) Data Analysis:
IC50's are calculated using automated fitting algorithm (A+Analysis).
Using procedures similar to those described herein, the following compounds were assayed for activity.

T1 sequence (Q91WN4 whole entry): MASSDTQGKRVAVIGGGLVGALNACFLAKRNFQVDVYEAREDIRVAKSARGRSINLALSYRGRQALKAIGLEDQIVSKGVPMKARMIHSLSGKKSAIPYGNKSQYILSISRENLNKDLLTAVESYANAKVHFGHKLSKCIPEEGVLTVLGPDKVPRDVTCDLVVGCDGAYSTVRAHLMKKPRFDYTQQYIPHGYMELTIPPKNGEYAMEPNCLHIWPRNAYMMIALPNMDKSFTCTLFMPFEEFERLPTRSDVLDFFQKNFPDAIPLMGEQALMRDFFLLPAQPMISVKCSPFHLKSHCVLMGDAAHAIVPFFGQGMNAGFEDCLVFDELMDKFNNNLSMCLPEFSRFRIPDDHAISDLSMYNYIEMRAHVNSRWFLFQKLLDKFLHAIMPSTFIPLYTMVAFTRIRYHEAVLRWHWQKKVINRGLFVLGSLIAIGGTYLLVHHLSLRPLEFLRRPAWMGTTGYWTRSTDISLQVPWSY

On to `O=C(CC1CON=C1c1ccc(Cl)c(Cl)c1)Nc1cccnc1` (stereo not drawn) [2-[3-(3,4-Dichloro-phenyl)-4,5-dihydro-isoxazol-4-yl]-N-pyridin-3-yl-acetamide], for which the inhibition at 10 µM turned out to be 77.2%. On to `COC(=O)CC1CON=C1c1ccc(Cl)c(Cl)c1` (stereo not drawn) [[3-(3,4-Dichloro-phenyl)-4,5-dihydro-isoxazol-4-yl]-acetic acid methyl ester], for which the inhibition at 10 µM was determined as 102%.

`COC(=O)Cc1cc(-c2ccc(Cl)c(Cl)c2)no1` [[3-(3,4-Dichloro-phenyl)-isoxazol-5-yl]-acetic acid methyl ester]: the inhibition at 10 µM was determined as 66.4%. To `Cc1ncc(NC(=O)CC2CON=C2c2ccc(Cl)c(Cl)c2)cn1` (stereo not drawn) [2-[3-(3,4-Dichloro-phenyl)-4,5-dihydro-isoxazol-4-yl]-N-(2-methyl-pyrimidin-5-yl)-acetamide] belongs 81.2%.

For `Cc1cc(NC(=O)CC2CON=C2c2ccc(Cl)c(Cl)c2)on1` (stereo not drawn) [2-[3-(3,4-Dichloro-phenyl)-4,5-dihydro-isoxazol-4-yl]-N-(3-methyl-isoxazol-5-yl)-acetamide], the inhibition at 10 µM is 64%. To `O=C(O)CC1CON=C1c1ccc(Cl)c(Cl)c1` (stereo not drawn) [[3-(3,4-Dichloro-phenyl)-4,5-dihydro-isoxazol-4-yl]-acetic acid] belongs 101%. In the case of `NC(=O)CC1CON=C1c1ccc(Cl)c(Cl)c1` (stereo not drawn) [2-[3-(3,4-Dichloro-phenyl)-4,5-dihydro-isoxazol-4-yl]-acetamide] it was 60.4%; in that of `O=C(O)CC1CON=C1c1cccc(Cl)c1` (stereo not drawn) [3-(3-Chloro-phenyl)-4,5-dihydro-isoxazol-4-yl]-acetic acid], 106%; in that of `COC(=O)CC1CC(c2ccc(Cl)c(Cl)c2)=NO1` (stereo not drawn) [[3-(3,4-Dichloro-phenyl)-4,5-dihydro-isoxazol-5-yl]-acetic acid methyl ester], 88.4%. Turning to `O=C(O)Cc1conc1-c1ccc(Cl)c(Cl)c1` [[3-(3,4-Dichloro-phenyl)-isoxazol-4-yl]-acetic acid], the inhibition at 10 µM is 74.7%. To `O=C(O)Cc1cc(-c2ccc(Cl)c(Cl)c2)no1` [[3-(3,4-Dichloro-phenyl)-isoxazol-5-yl]-acetic acid] belongs 74.5%; to `CC1ON=C(c2ccc(Cl)c(Cl)c2)C1CC(=O)O` (stereo not drawn) [[3-(3,4-Dichloro-phenyl)-5-methyl-4,5-dihydro-isoxazol-4-yl]-acetic acid], 84.5%; to `O=C(O)CC1CC(c2ccc(Cl)c(Cl)c2)=NO1` (stereo not drawn) [[3-(3,4-Dichloro-phenyl)-4,5-dihydro-isoxazol-5-yl]-acetic acid], 93.3%. To `O=C(CC1CON=C1c1ccc(Cl)c(Cl)c1)Nc1cncnc1` (stereo not drawn) [2-[3-(3,4-Dichloro-phenyl)-4,5-dihydro-isoxazol-4-yl]-N-pyrimidin-5-yl-acetamide] belongs 82.7%. To `CCOC(=O)Cc1cc(-c2ccc(Cl)c(Cl)c2)no1` [[3-(3,4-Dichloro-phenyl)-isoxazol-5-yl]-acetic acid ethyl ester] belongs 60.8%.
